pIC50: −log10 of the molar value. A value given as a limit tells only on which side of the number the result lay.

Chain of Factor D (P00746 26-253): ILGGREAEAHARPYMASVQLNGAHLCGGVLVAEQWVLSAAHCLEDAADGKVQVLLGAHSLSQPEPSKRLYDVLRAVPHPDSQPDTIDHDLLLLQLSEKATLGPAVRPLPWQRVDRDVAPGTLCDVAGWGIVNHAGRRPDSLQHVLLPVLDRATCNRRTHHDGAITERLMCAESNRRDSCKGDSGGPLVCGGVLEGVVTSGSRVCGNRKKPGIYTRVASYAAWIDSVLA

This experiment concerns the target Factor D (Homo sapiens (Human), UniProt P00746). Description: Factor D esterolytic assay. The conditions noted are these: Z-Lys-SBzl substrate, 100 mM HEPES, 500 mM NaCl, pH 7.5, 10% DMSO; tested a minimum of three times; read-out: Measured Ki (IC50) Value for Compounds: IC50. The format is biochemical. In a few lines:
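Buffer was 100 mM HEPES, 500 mM NaCl, pH 7.5 with 10% DMSO. Compound and Factor D were combined, then Z-Lys-SBzl (1.29 mM) was added either at once or following room-temperature incubation. Rates came from DTNB colour at 405 nm minus 690 nm over 600 s, with percent inhibition giving IC50 over at least three tests.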
Consider `CC(O)c1cc(-c2cccc(CN)c2)c2oc(COc3ccccc3CC(=O)O)cc2c1` (stereo not shown) [Compound 31, 2-(2-((7-(3-(aminomethyl)phenyl)-5-(1-hydroxyethyl)benzofuran-2-yl)methoxy)phenyl)acetic acid], for which the pIC50 (in general, the IC50 on a negative log10 scale, so that one unit is a factor of ten) is greater than 6.00.

With `CC(C)(C)OC(=O)Cc1ccccc1OCc1cc2cc(COc3ccccc3CC(=O)O)cc(-c3cccc(CN)c3)c2o1` [Compound 24a, 2-(2-((7-(3-(aminomethyl)phenyl)-2-((2-(2-(tert-butoxy)-2-oxoethyl)phenoxy)methyl)benzofuran-5-yl)methoxy)phenyl)acetic acid], the negative logarithm of the IC50 (pIC50) was greater than 6.00.

For `CCc1ccc(CC(=O)O)c(OCc2c(C)oc3ccc(-c4cccc(CN)c4)cc23)c1` [Compound 202c, 2-(2-((5-(3-(aminomethyl)phenyl)-2-methylbenzofuran-3-yl)methoxy)-4-ethylphenyl)acetic acid], the pIC50 is greater than 6.00.

As for `NCc1cccc(-c2cc(C(=O)O)cc3cc(COc4ccccc4CC(=O)O)oc23)c1` [Compound 37b, 7-(3-(aminomethyl)phenyl)-2-((2-(carboxymethyl)phenoxy)methyl)benzofuran-5-carboxylic acid], the pIC50 was 5.00 to 6.00.

On to `NCc1cccc(-c2cc(CN3CC[C@H](F)C3)c3occ(COc4ccccc4CC(=O)O)c3c2)c1` [Compound 180d, (S)-2-(2-((5-(3-(aminomethyl)phenyl)-7-((3-fluoropyrrolidin-1-yl)methyl)benzofuran-3-yl)methoxy)phenyl)acetic acid], for which the pIC50 was greater than 6.00.

`NCc1cccc(-c2cc(COc3ccc(F)cc3)c3occ(COc4ccccc4CC(=O)O)c3c2)c1` [Compound 143f, 2-(2-((5-(3-(aminomethyl)phenyl)-7-((4-fluorophenoxy)methyl)benzofuran-3-yl)methoxy)phenyl)acetic acid]: the pIC50 was greater than 6.00.

With `NCc1cccc(-c2cccc3cc(COc4ccccc4CC(=O)O)oc23)c1` [Compound 19e, 2-(2-((7-(3-(aminomethyl)phenyl)benzofuran-2-yl)methoxy)phenyl)acetic acid], the pIC50 was greater than 6.00.

Consider `Cn1cc(-c2cc(-c3cccc(CN)c3)cc3c(COc4ccccc4CC(=O)O)c(C(=O)O)oc23)cn1` [Compound 60d, 5-(3-(aminomethyl)phenyl)-3-((2-(carboxymethyl)phenoxy)methyl)-7-(1-methyl-1H-pyrazol-4-yl)benzofuran-2-carboxylic acid], for which the pIC50 is greater than 6.00.

For `NCc1cccc(-c2ccc3occ(COc4cc(OC(F)(F)F)ccc4CC(=O)O)c3c2)c1` [Compound 110d, 2-(2-((5-(3-(aminomethyl)phenyl)benzofuran-3-yl)methoxy)-4-(trifluoromethoxy)phenyl)acetic acid], the pIC50 is greater than 6.00.

Regarding `NCc1cccc(-c2cc(-c3c[nH]c4ccccc34)c3occ(COc4ccccc4CC(=O)O)c3c2)c1` [Compound 136d, 2-(2-((5-(3-(aminomethyl)phenyl)-7-(1H-indol-3-yl)benzofuran-3-yl)methoxy)phenyl)acetic acid], the pIC50 is greater than 6.00.

With `Cc1ccc(CC(=O)O)c(OCc2c(C(C)(C)C)oc3ccc(-c4cccc(CN)c4)cc23)c1` [Compound 176c, 2-(2-((5-(3-(aminomethyl)phenyl)-2-(tert-butyl)benzofuran-3-yl)methoxy)-4-methylphenyl)acetic acid], the pIC50 was greater than 6.00.

In the case of `COc1ccc(CC(=O)O)c(OCc2coc3c(C)cc(-c4cccc(CN)c4)cc23)c1` [Compound 253c, 2-(2-((5-(3-(aminomethyl)phenyl)-7-methylbenzofuran-3-yl)methoxy)-4-methoxyphenyl)acetic acid], the pIC50 was greater than 6.00.

Take `COc1ccc(CC(=O)O)c(OCc2c(-c3ccc(F)cc3)oc3ccc(-c4cccc(CN)c4)cc23)c1` [Compound 168c, 2-(2-((5-(3-(aminomethyl)phenyl)-2-(4-fluorophenyl)benzofuran-3-yl)methoxy)-4-methoxyphenyl)acetic acid]: the pIC50 is greater than 6.00.

With `Cc1ccc(CC(=O)O)c(OCc2c3cc(-c4cccc(CN)c4)ccc3nn2C)c1` [Compound 211c, 2-(2-((5-(3-(aminomethyl)phenyl)-2-methyl-2H-indazol-3-yl)methoxy)-4-methylphenyl)acetic acid], the pIC50 is greater than 6.00.

Regarding `NCc1cccc(-c2ccc3scc(COc4ccccc4CC(=O)O)c3c2)c1` [Compound 101d, 2-(2-((5-(3-(aminomethyl)phenyl)benzo[b]thiophen-3-yl)methoxy)phenyl)acetic acid], the pIC50 was greater than 6.00.

Turning to `NCc1cccc(-c2cccc3cc(COc4ccccc4CCC(=O)O)ccc23)c1` [Compound 43c, 3-(2-((5-(3-(aminomethyl)phenyl)naphthalen-2-yl)methoxy)phenyl)propanoic acid], the pIC50 is less than 5.00.

Turning to `COc1cccc(CC(=O)O)c1OCc1coc2ccc(-c3cccc(CN)c3)cc12` [Compound 104e, 2-(2-((5-(3-(aminomethyl)phenyl)benzofuran-3-yl)methoxy)-3-methoxyphenyl)acetic acid], the pIC50 is greater than 6.00.

As to `NCc1cccc(-c2coc3ccc(COc4ccccc4CC(=O)O)cc23)c1` [Compound 38e, 2-(2-((3-(3-(aminomethyl)phenyl)benzofuran-5-yl)methoxy)phenyl)acetic acid], the pIC50 is greater than 6.00.

`Cc1ccc(CC(=O)O)c(OCc2c3cc(-c4cccc(CN)c4)ccc3nn2C(C)C)c1` [Compound 256c, 2-(2-((5-(3-(aminomethyl)phenyl)-2-isopropyl-2H-indazol-3-yl)methoxy)-4-methylphenyl)acetic acid]: the pIC50 was greater than 6.00.

On to `NCc1cccc(-c2ccc3occ(COc4ccccc4CC(=O)O)c3c2)c1` [Compound 9e, 2-(2-((5-(3-(aminomethyl)phenyl)benzofuran-3-yl)methoxy)phenyl)acetic acid], for which the negative-log IC50 (pIC50) is greater than 6.00.

Take `COc1ccc(CC(=O)O)c(OCc2c(C)oc3ccc(-c4cccc([C@H](N)CO)c4)cc23)c1` [Compound 241c, (S)-2-(2-((5-(3-(1-amino-2-hydroxyethyl)phenyl)-2-methylbenzofuran-3-yl)methoxy)-4-methoxyphenyl)acetic acid]: the pIC50 was greater than 6.00.

On to `CCOC(=O)Cc1ccccc1OCc1cc2c(-c3cccc(CN)c3)cccc2o1` [Compound 25c, ethyl 2-(2-((4-(3-(aminomethyl)phenyl)benzofuran-2-yl)methoxy)phenyl)acetate], for which the pIC50 is less than 5.00.

Turning to `NCc1cccc(-c2cc(OCC3CC3)c3occ(COc4ccccc4CC(=O)O)c3c2)c1` [Compound 159f, 2-(2-((5-(3-(aminomethyl)phenyl)-7-(cyclopropylmethoxy)benzofuran-3-yl)methoxy)phenyl)acetic acid], the pIC50 is greater than 6.00.

Consider `NCc1cccc(-c2cc(-c3cccc(CN)c3)c3occ(COc4ccccc4CC(=O)O)c3c2)c1` [Compound 189c, 2-(2-((5,7-bis(3-(aminomethyl)phenyl)benzofuran-3-yl)methoxy)phenyl)acetic acid], for which the pIC50 is greater than 6.00.

As for `NCc1cccc(-c2cc(-c3ccc(F)cc3)c3occ(COc4ccccc4CC(=O)O)c3c2)c1` [Compound 221c, 2-(2-((5-(3-(aminomethyl)phenyl)-7-(4-fluorophenyl)benzofuran-3-yl)methoxy)phenyl)acetic acid], the pIC50 is greater than 6.00.

Regarding `COC(=O)c1cc(-c2cccc(CN)c2)c2oc(COc3ccccc3CC(=O)O)cc2c1` [Compound 23c, 2-(2-((7-(3-(aminomethyl)phenyl)-5-(methoxycarbonyl)benzofuran-2-yl)methoxy)phenyl)acetic acid], the negative logarithm of the IC50 (pIC50) was greater than 6.00.

As to `NCc1cccc(-c2ccc3cnn(Cc4ccccc4CC(=O)O)c3c2)c1` [Compound 67e, 2-(2-((6-(3-(aminomethyl)phenyl)-1H-indazol-1-yl)methyl)phenyl)acetic acid], the pIC50 was greater than 6.00.

For the compound `NCc1cccc(-c2cc(OCCF)c3occ(COc4ccccc4CC(=O)O)c3c2)c1` [Compound 248f, 2-(2-((5-(3-(aminomethyl)phenyl)-7-(2-fluoroethoxy)benzofuran-3-yl)methoxy)phenyl)acetic acid], the pIC50 was greater than 6.00.

Regarding `CCNc1cc(-c2cccc(CN)c2)cc2c(COc3ccccc3CC(=O)O)coc12` [Compound 150d, 2-(2-((5-(3-(aminomethyl)phenyl)-7-(ethylamino)benzofuran-3-yl)methoxy)phenyl)acetic acid], the pIC50 is greater than 6.00.

Regarding `CNc1cc(-c2cccc(CN)c2)cc2c(COc3ccccc3CC(=O)O)coc12` [Compound 152d, 2-(2-((5-(3-(aminomethyl)phenyl)-7-(methylamino)benzofuran-3-yl)methoxy)phenyl)acetic acid], the pIC50 was greater than 6.00.

As for `Cc1nn(C)cc1-c1cc(-c2cccc(CN)c2)cc2c(COc3ccccc3CC(=O)O)coc12` [Compound 134c, 2-(2-((5-(3-(aminomethyl)phenyl)-7-(1,3-dimethyl-1H-pyrazol-4-yl)benzofuran-3-yl)methoxy)phenyl)acetic acid], the pIC50 is greater than 6.00.

Take `COc1c(-c2ccc3c(c2)c(COc2ccccc2CC(=O)O)nn3C(C)C)ccnc1CN` [Compound 326d, 2-(2-((5-(2-(aminomethyl)-3-methoxypyridin-4-yl)-1-isopropyl-1H-indazol-3-yl)methoxy)phenyl)acetic acid]: the negative logarithm of the IC50 (pIC50) is 5.00 to 6.00.

With `NCc1cccc(-c2ccc3onc(COc4ccccc4CC(=O)O)c3c2)c1` [Compound 88e, 2-(2-((5-(3-(aminomethyl)phenyl)benzo[d]isoxazol-3-yl)methoxy)phenyl)acetic acid], the pIC50 is greater than 6.00.

Regarding `NCc1cccc(-c2cc(C(=O)NCC3CC3)cc3cc(COc4ccccc4CC(=O)O)oc23)c1` [Compound 32d, 2-(2-((7-(3-(aminomethyl)phenyl)-5-((cyclopropylmethyl)carbamoyl)benzofuran-2-yl)methoxy)phenyl)acetic acid], the pIC50 is greater than 6.00.

For the origin of these results see patent publication US20250186391A1, “ORAL COMPLEMENT FACTOR D INHIBITORS” (BioCryst Pharmaceuticals, Inc., priority 2019, published 2025).
